Measured values published in ChEMBL document CHEMBL3137667, “[Drug-induced liver injury; fourteenth updated edition of the bibliographic database of liver injuries and related drugs]” (Gastroenterol Clin Biol, 2004).

What was measured:
[1] = Highest frequency of acute liver toxicity observed during clinical trials, expressed as a percentage. [column '% AIGUE' in source]; conditions: human
[2] = human
[3] = human, serum, 4383 h
[4] = human, serum
[5] = Highest frequency of moderate liver toxicity observed during clinical trials, expressed as a percentage. [column '% BIOL' in source]; conditions: human
[6] = human; remark: listed apart in the source
[7] = human; remark: listed apart in the source
[8] = human, serum; remark: listed apart in the source
[9] = human; remark: listed apart in the source
[10] = human; remark: listed apart in the source
[11] = human; remark: listed apart in the source
[12] = human; remark: listed apart in the source
[13] = human; remark: listed apart in the source
[14] = human; remark: listed apart in the source
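Wherever Hepatotoxicity (association with vascular disease) is given: count of indexed literature references reporting vascular liver injury in humans, e.g. peliosis hepatitis, hepatic veno-occlusive disease or Budd-Chiari syndrome.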
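Wherever Hepatotoxicity (benign tumour) is given: value is a count of indexed literature references citing a benign tumour confirmed by histopathology.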
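Wherever Hepatotoxicity (choleostasis) is given: human cholestatic liver injury, shown by histopathology or by peak ALT or AST elevation over alkaline phosphatase ratio below 2, value counts indexed literature reports.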
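Wherever Hepatotoxicity (chronic liver disease) is given: chronic liver injury confirmed by histopathology or persistently raised serum aminotransferase activity beyond 6 months, value given as the count of indexed literature references.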
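Wherever Hepatotoxicity (cirrhosis) is given: value is a count of indexed literature references reporting cirrhosis confirmed by histopathology.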
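Wherever Hepatotoxicity (cytolytic) is given: human cytolytic liver injury, shown by histopathology or by a ratio above 5 of peak ALT or AST elevation to alkaline phosphatase elevation, value counts indexed references.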
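Wherever Hepatotoxicity (granulomatous hepatitis) is given: value is a count of indexed literature references reporting granulomatous liver disease confirmed by histopathology.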
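Wherever Hepatotoxicity (malignant tumour) is given: malignant tumour confirmed by histopathology, value gives the count of indexed literature references reporting it.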
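Wherever Hepatotoxicity (severe hepatitis) is given: human clinical data: severe hepatitis, meaning potentially life-threatening liver failure or clinically observed cases, the value counts how many indexed literature references report it.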
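Wherever Hepatotoxicity (steatosis) is given: steatosis confirmed by histopathology, value is the count of indexed references.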

Structure (SMILES)	Hepatotoxicity (acute) [1] [%]	Hepatotoxicity (benign tumour) [2]	Hepatotoxicity (chronic liver disease) [3]	Hepatotoxicity (moderate) [4]	Hepatotoxicity (moderate) [5] [%]	Hepatotoxicity (cytolytic) [6]	Hepatotoxicity (malignant tumour) [7]	Hepatotoxicity (acute) [8]	Hepatotoxicity (severe hepatitis) [9]	Hepatotoxicity (cirrhosis) [10]	Hepatotoxicity (association with vascular disease) [11]	Hepatotoxicity (steatosis) [12]	Hepatotoxicity (choleostasis) [13]	Hepatotoxicity (granulomatous hepatitis) [14]	Hepatotoxicity (acute) ([1]; Liver) [%]	Hepatotoxicity (moderate) ([5]; Liver) [%]	Hepatotoxicity (severe hepatitis) ([9]; Liver)
CCOC(=O)[C@H](CCc1ccccc1)N[C@@H](C)C(=O)N1Cc2ccccc2C[C@H]1C(=O)O	0	0	0	3	10	0	0	1	0	0	0	0	0	0	–	–	–
CO/N=C(\C(=O)N[C@@H]1C(=O)N2C(C(=O)[O-])=C(C[N+]3(C)CCCC3)CS[C@H]12)c1csc(N)n1	–	0	0	52	–	0	0	0	–	0	0	0	0	0	0	37.5	0
CC(=O)N[C@@H]1[C@H](Oc2c3cc4cc2Oc2ccc(cc2Cl)[C@@H](O[C@@H]2O[C@@H](CO)[C@@H](O)[C@H](O)[C@@H]2NC(C)=O)[C@@H]2NC(=O)[C@H](NC(=O)[C@@H]4NC(=O)[C@H]4NC(=O)[C@@H](Cc5ccc(c(Cl)c5)O3)NC(=O)[C@H](N)c3ccc(O)c(c3)Oc3cc(O)cc4c3)c3ccc(O)c(c3)-c3c(O[C@H]4O[C@H](CO)[C@@H](O)[C@@H](O)[C@@H]4O)cc(O)cc3[C@@H](C(=O)O)NC2=O)O[C@@H](CO)[C@@H](O)[C@@H]1O	0.9	0	0	36	26.9	1	0	4	0	0	0	0	1	0	–	–	–
CC(=N)N1CC[C@H](SC2=C(C(=O)O)N3C(=O)[C@H]([C@@H](C)O)[C@H]3C2)C1.O=C(O)CCNC(=O)c1ccccc1	0	0	0	60	38.5	0	0	1	0	0	0	0	1	0	–	–	–
CCc1nc(N)nc(N)c1-c1ccc(Cl)cc1.Nc1ccc(S(=O)(=O)c2ccc(N)cc2)cc1	2.9	0	0	1	25.3	1	0	3	0	0	0	0	0	0	–	–	–
O=[N+]([O-])c1ccc(O)c([N+](=O)[O-])c1 [2,4-DINITROPHENOL]	0	0	0	0	0	0	0	3	2	0	0	0	0	0	–	–	–
COCc1c(C(=O)OC(C)C)ncc2[nH]c3ccc(OCc4ccccc4)cc3c12 [ABECARNIL]	0	0	0	1	8	0	0	0	0	0	0	0	0	0	–	–	–
N[C@H](C(=O)O)[C@@H]1CC(Cl)=NO1 [ACIVICIN]	0	0	0	3	62	0	0	0	0	0	0	0	0	0	–	–	–
Nc1nc2c(ncn2COCCO)c(=O)[nH]1 [ACYCLOVIR]	–	0	0	18	–	1	0	1	–	0	0	0	0	0	1.9	50	0
Nc1ncnc2c1ncn2CCOCP(=O)(O)O [ADEFOVIR]	7.4	0	0	2	33.3	1	0	1	0	0	0	0	0	0	–	–	–
CC(N)C(=O)OC(C)(C)Cc1ccc(Cl)cc1 (stereo not given) [ALAPROCLATE]	0	0	0	1	0	0	0	0	0	0	0	0	0	0	–	–	–
O=C(O)CN1C(=O)c2cccc3cccc(c23)C1=O [ALRESTATIN]	0	0	0	2	11.1	0	0	0	0	0	0	0	0	0	–	–	–
CC(C)(C)C(=O)OCOC(=O)[C@@H]1N2C(=O)[C@@H](/N=C/N3CCCCCC3)[C@H]2SC1(C)C [AMDINOCILLIN PIVOXIL]	0	0	0	1	17.2	0	0	0	0	0	0	0	0	0	–	–	–
CNn1cc(C(=O)O)c(=O)c2cc(F)c(N3CCN(C)CC3)cc21 [AMIFLOXACIN]	–	0	0	1	–	1	0	1	–	0	0	0	0	0	1.7	5	0
NCC[C@H](O)C(=O)N[C@@H]1C[C@H](N)[C@@H](O[C@H]2O[C@H](CN)[C@@H](O)[C@H](O)[C@H]2O)[C@H](O)[C@H]1O[C@H]1O[C@H](CO)[C@@H](O)[C@H](N)[C@H]1O [AMIKACIN]	0	0	0	6	15.3	0	0	0	0	0	0	0	0	0	–	–	–
